Active and inactive are the calls of the source.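 How the source made its calls: active means p38 protein level shifted at least 30% from the DMSO control, either lower or higher; inactive means the rest.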
Tested on: HCT116 p38 protein level, western blot, 24 h
Assay: p38 MAPK abundance shift in treated cells – cell-based, HCT116 colorectal carcinoma, chemiluminescent western blot, counter-screen for KLF5 inhibitor project, late-stage follow-up (AID 588640)
Conditions: at 10 µM; for inhibition: stronger effect = higher value; for fold change: measured here: p38 band fold change vs DMSO

SMILES	inhibition	fold change
CN(C(=O)COC(=O)/C=C/c1cccc([N+](=O)[O-])c1)C1CCS(=O)(=O)C1 (stereo unspecified)	36.3%	0.658
CN(C(=O)CNC(=O)/C=C/c1cccc(Cl)c1)C1CCS(=O)(=O)CC1	35.2%	0.647
CN(C(=O)CNC(=O)/C=C/c1cccc(Cl)c1)C1CCS(=O)(=O)C1 (stereo unspecified)	-15.7% (inactive)	1.16
